This is an account of results in patent US12358921B2, “Antiviral heterocyclic compounds” (priority 2022, dated 2025).

Assay type in all cases: cell-based
For test [1], the system named is hMPV A2 TN/94-49. As to the kind of experiment: HMPV antiviral assay Method 1 (LLC-MK2 cells, ATP-Lite). The conditions noted are these: hMPV A2 TN/94-49, LLC-MK2 cells. In short, it runs like this: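 LLC-MK2 cells infected in suspension with hMPV A2 TN/94-49 at MOI 0.005, 5,000 cells/well, in serum-free OptiMEM with 2 μg/mL TPCK-trypsin (final) and CaCl2; compounds in duplicate, 10 points, 2 μM top, 2.5-fold dilutions. After 7 days at 37 °C, cell health by ATP-Lite luminescence; EC50 by four-parameter fit.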

The test system of test [2] is HUMAN RSV-A (“LONG” STRAIN). Description: RSV-A assay (CPE, ATPlite) in Hep-2 cells. The conditions noted are these: human respiratory syncytial virus, 120 h, MOI 0.1, 5-day incubation. In short, it runs like this: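 Protection from RSV cytopathic effect read by ATP luminescence (ATPlite) after 5-day culture. Genotype A "Long" virus added at MOI 0.1 to Hep-2 monolayers at 8,000 cells/well, pre-dosed with duplicate 2-fold compound dilutions; controls include infected untreated and uninfected wells. EC50 values binned into ranges.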

Test [3] deals with hMPV A2 TN/94-49. Description: HMPV antiviral assay Method 2 (LLC-MK2 cells with CP-100-356, ATP-Lite). As to conditions: hMPV A2 TN/94-49, LLC-MK2 cells, 4 μM CP-100-356, Method 2. In short, it runs like this:
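The protective effect was measured after 7 days at 37 °C by ATP-Lite luminescence and expressed as % cell health relative to virus-only and cells-only wells, with EC50 from a four-parameter logistic. Cells were LLC-MK2 infected with strain A2 TN/94-49 (MOI 0.16) with final 2 μM CP-100-356 and 2 μg/mL TPCK-trypsin; 10 duplicate concentrations from 200 nM, 2.5-fold steps.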

On to `[2H]C([2H])([2H])c1nc2ccc(C(=O)NC[C@@](O)(c3cccc(F)c3)c3cc4c(c(-c5ccc(F)c(Cl)c5Cl)n3)OC[C@]4(C)C(N)=O)cc2o1` [Example 281], for which the values for the EC50 in test [1], in test [2] and in test [3] were < 500 nM, < 200 nM and < 200 nM, respectively.

In the case of `C[C@]1(C(N)=O)COc2c1cc([C@@](O)(CNC(=O)c1cc(OCCO)c3nn(C4CC4)cc3c1)C1CC1)nc2-c1ccc(F)c(Cl)c1F` [Example 37], the EC50 (usually the midpoint of the concentration-response curve) in test [1] is > 500 nM; in test [2] it was < 200 nM; in test [3], < 200 nM.

Consider `COc1cc(C(=O)NC[C@](O)(c2cc3c(c(-c4cc(F)c(F)cc4F)n2)OC[C@]3(C)C(N)=O)C2CC(F)(F)C2)cc2cn(C(F)F)nc12` [Example 33], for which the EC50 in test [1] is > 500 nM; in test [2] it was < 200 nM; in test [3] it was < 200 nM.

`COc1cc(C(=O)NC[C@@](O)(c2ccc(F)cc2)c2cc3c(c(-c4ccc5c(c4Cl)OC(F)(F)O5)n2)OC[C@]3(C)C(N)=O)cc2cn(C(F)F)nc12` [Example 264]: the results for the EC50 in test [1], in test [2] and in test [3] were < 500 nM, < 200 nM and < 200 nM, respectively.

For `COc1cc(C(=O)NC[C@@](O)(c2ccc(F)cc2)c2cc3c(c(-c4cc(Cl)c(F)cc4F)n2)OC[C@]3(C)C(N)=O)cc2cn(C3(F)CC3)nc12` [Example 14], the EC50 is < 500 nM in test [1], < 200 nM in test [2] and < 200 nM in test [3].

Consider `COc1cc(C(=O)NC[C@@](O)(c2cccc(F)c2)c2cc3c(c(-c4ccc5c(c4Cl)OC(F)(F)O5)n2)OC[C@]3(C)C(N)=O)cc2cn(C(F)F)nc12` [Example 276], for which the EC50 in test [1] was < 500 nM; in test [2], < 200 nM; in test [3] it was < 200 nM.

As for `COc1cc(C(=O)NC[C@@](O)(c2cccc(F)c2)c2cc3c(c(-c4ccc5c(c4Cl)OC(F)(F)O5)n2)OC[C@]3(C)C(N)=O)cc2cn(C3(F)CC3)nc12` [Example 275], the results for the EC50 in test [1], in test [2] and in test [3] were < 500 nM, < 200 nM and < 200 nM, respectively.

With `COc1cc(C(=O)NC[C@@](O)(c2ccccc2)c2cc3c(c(-c4cc(Cl)ccc4F)n2)OC[C@]3(C)C(N)=O)cc2cn(C(F)F)nc12` [Example 145], the EC50 is < 500 nM in test [1], < 200 nM in test [2] and < 200 nM in test [3].

As for `COc1cc(C(=O)NC[C@@](O)(c2ccccc2)c2cc3c(c(-c4ccc5c(c4)OC(F)(F)O5)n2)OC[C@]3(C)C(N)=O)cc2cn(C3(F)CC3)nc12` [Example 19], the EC50 in test [1] was < 500 nM; in test [2], < 200 nM; in test [3], < 200 nM.

Regarding `COc1cc(C(=O)NC[C@@](O)(c2ccccc2)c2cc3c(c(-c4cc(F)c(F)cc4F)n2)OC[C@]3(C)C(N)=O)cc2cn(C3(F)CC3)nc12` [Example 170], the EC50 in test [1] is < 500 nM; in test [2], < 200 nM; in test [3], < 200 nM.

Take `[2H]C([2H])([2H])c1nc2ccc(C(=O)NC[C@@](O)(c3cccc(F)c3)c3cc4c(c(-c5ccc6c(c5Cl)OC(F)(F)O6)n3)OC[C@]4(C)C(N)=O)cc2o1` [Example 282]: the EC50 in test [1] was < 500 nM; in test [2], < 200 nM; in test [3] it was < 200 nM.

As for `COc1cc(C(=O)NC[C@@](O)(c2cccc(F)c2)c2cc3c(c(-c4ccc(F)c(Cl)c4Cl)n2)OC[C@]3(C)C(N)=O)cc2cn(C3CC3)nc12` [Example 268], the EC50 is < 500 nM in test [1], < 200 nM in test [2] and < 200 nM in test [3].

With `COc1cc(C(=O)NC[C@@](O)(c2cccc(F)c2)c2cc3c(c(-c4ccc(F)c(Cl)c4Cl)n2)OC[C@]3(C)C(N)=O)cc2cn(C3(F)CC3)nc12` [Example 269], the figures for the EC50 in test [1], in test [2] and in test [3] were < 500 nM, < 200 nM and < 200 nM, respectively.

For `[2H]C([2H])([2H])NC(=O)[C@@]1(C)COc2c1cc([C@@](O)(CNC(=O)c1cc(OC)c3nn(C4CC4)cc3c1)c1ccccc1)nc2-c1cc(Cl)c(F)cc1F` [Example 140], the EC50 in test [1] is < 500 nM; in test [2], < 200 nM; in test [3] it was < 200 nM.
